{"source": "paper PMC11868595", "about": "“Safety, pharmacokinetics and efficacy of HA121-28 in patients with advanced solid tumors and RET fusion-positive non-small-cell lung cancer: a multicenter, open-label, single-arm phase 1/2 trial” (Signal Transduction and Targeted Therapy, 2025)", "tested_on": "patients with advanced solid tumors", "assay": "Phase 1 trial: adverse events (CTCAE), DLT and MTD", "assay_type": "in vivo, human", "procedure": "The phase 1 trial was a two-part, multicenter, open-label, nonrandomized study to evaluate the safety and preliminary efficacy of HA121-28.\nSafety, tolerability, and PK of HA121-28 was assessed in dose-escalation part. The single-patient accelerated titration was carried out at 25 mg and 50 mg; then, the dose escalation proceeded according to a “3 + 3” design in dose range of 100 to 800 mg. Escalation to a higher dose level was considered by the satisfactory review of safety results from the previous lower dose during the first cycle.\nThe dose-expansion part aims to further access the safety and efficacy of HA121-28 at the selected doses based on data from the dose-escalation part. The RP2D was determined by investigators in view of a thorough review of safety, PK, and efficacy results.\nIn phase 1 trial, during the dose-escalation part, patients first administered HA121-28 in a single ascending dose under the fasted state, then followed up for seven days. Then, patients received ascending doses of HA121-28 (q.d.) on a 21-day on and 7-day off treatment scheme for a 28-day cycle. For patients deemed beneficial from the treatment by investigators, treatment could remain until disease progression, or they discontinued from the study. In the dose-expansion part of phase 1, as well as phase 2, patients received HA121-28 (q.d.) at the selected doses on a 21-day on and 7-day off treatment scheme until disease progression, or they discontinued from the study.\nTreatment-emergent adverse events (TEAEs) were documented during the entire study period. The predefined adverse event of special interest (AESI) was ≥ grade 3 prolonged QT interval. Tumor imaging was performed using contrast-enhanced computed tomography or magnetic resonance imaging at screening, Day 28 of the first cycle, then approximately every eight weeks till the end of the study for phase 1; in phase 2, imaging was scheduled at screening, and every eight weeks during the first 40 weeks, followed by every 12 weeks for the rest of the study period. RECIST 1.1 was used by the independent review committee or investigators for assessment of tumor response. After the original assessment, a repeated assessment was required around four weeks later to confirm a complete or partial response.\nThe primary endpoints of phase 1 were to investigate the MTD, dose-limiting toxicities, and the incidence and severity of TEAEs. Each TEAE was graded according to the Common Terminology Criteria for Adverse Events (CTCAE, version 5.0) and coded by Medical Dictionary for Regulatory Activities (MedDRA, version 21.0). The secondary endpoints included calculating PK parameters, assessing the ORR and DCR at the recommended dose by investigators as per RECIST 1.1. The exploratory endpoint was PFS.\nIf grade 2 or higher toxicity related to the study drug occurs in Groups 1 and 2 (as determined by the investigator), dose escalation will proceed using a 3+3 design starting from that dose level. If no DLT is observed at the 800 mg/d dose level after dose escalation, a meeting of investigators will be convened to decide whether to proceed with further dose escalation based on the available PK data, safety, and tolerability information.\n5. Definition of DLT and MTD\nThe following events related to the study drug (including those that are definitely related, highly likely to be related, and possibly related):\n(1) Grade 4 hematologic toxicity or grade 3 neutropenia accompanied by a fever of 38.5℃ or higher, or grade 3 thrombocytopenia accompanied by severe bleeding.\n(2) Patients who discontinued the medication for more than 7 days due to unresolved toxicity reactions or who discontinued the medication more than twice due to toxicity […]\n(3) In the context of supportive treatment, diarrhea of grade 2 lasting more than 7 days, or grade 3 diarrhea lasting more than 3 days.", "data": [{"compound": "COc1cc2c(Nc3ccc(Br)cc3F)ncnc2cc1OCCCCN(C)C.Cl.Cl", "note": "[HA121-28, N-(4-bromo-2-fluorophenyl)-7-(4-(dimethylamino)butoxy)-6-methoxy quinazolin-4-amine dihydrochloride]", "values": [{"measurement": "Serious TRAE: Arrhythmia", "setting": "Phase 1, 450 mg (N=79)", "value": "1 (1.3) No. (%)"}, {"measurement": "Serious TRAE: Blood bilirubin increased", "setting": "Phase 1, 450 mg (N=79)", "value": "0 No. (%)"}, {"measurement": "Serious TRAE: Blood creatinine increased", "setting": "Phase 1, 450 mg (N=79)", "value": "0 No. (%)"}, {"measurement": "Serious TRAE: COVID-19", "setting": "Phase 1, 450 mg (N=79)", "value": "0 No. (%)"}, {"measurement": "Serious TRAE: Cardiac tamponade", "setting": "Phase 1, 450 mg (N=79)", "value": "0 No. (%)"}, {"measurement": "Serious TRAE: Coronary artery atherosclerosis", "setting": "Phase 1, 450 mg (N=79)", "value": "0 No. (%)"}, {"measurement": "Serious TRAE: Death", "setting": "Phase 1, 450 mg (N=79)", "value": "0 No. (%)"}, {"measurement": "Serious TRAE: Diarrhea", "setting": "Phase 1, 450 mg (N=79)", "value": "0 No. (%)"}, {"measurement": "Serious TRAE: Drug eruption", "setting": "Phase 1, 450 mg (N=79)", "value": "0 No. (%)"}, {"measurement": "Serious TRAE: Dyspnea", "setting": "Phase 1, 450 mg (N=79)", "value": "0 No. (%)"}, {"measurement": "Serious TRAE: Embolism", "setting": "Phase 1, 450 mg (N=79)", "value": "0 No. (%)"}, {"measurement": "Serious TRAE: Erythema multiforme", "setting": "Phase 1, 450 mg (N=79)", "value": "0 No. (%)"}, {"measurement": "Serious TRAE: Headache", "setting": "Phase 1, 450 mg (N=79)", "value": "0 No. (%)"}, {"measurement": "Serious TRAE: Hemoptysis", "setting": "Phase 1, 450 mg (N=79)", "value": "2 (2.5) No. (%)"}, {"measurement": "Serious TRAE: Hydronephrosis", "setting": "Phase 1, 450 mg (N=79)", "value": "0 No. (%)"}, {"measurement": "Serious TRAE: Hypertension", "setting": "Phase 1, 450 mg (N=79)", "value": "1 (1.3) No. (%)"}, {"measurement": "Serious TRAE: Hypoalbuminemia", "setting": "Phase 1, 450 mg (N=79)", "value": "0 No. (%)"}, {"measurement": "Serious TRAE: Intestinal obstruction", "setting": "Phase 1, 450 mg (N=79)", "value": "1 (1.3) No. (%)"}, {"measurement": "Serious TRAE: Intra-abdominal fluid collection", "setting": "Phase 1, 450 mg (N=79)", "value": "0 No. (%)"}, {"measurement": "Serious TRAE: Intracranial tumor hemorrhage", "setting": "Phase 1, 450 mg (N=79)", "value": "0 No. (%)"}, {"measurement": "Serious TRAE: Liver injury", "setting": "Phase 1, 450 mg (N=79)", "value": "0 No. (%)"}, {"measurement": "Serious TRAE: Lung adenocarcinoma", "setting": "Phase 1, 450 mg (N=79)", "value": "0 No. (%)"}, {"measurement": "Serious TRAE: Malignant neoplasm progression", "setting": "Phase 1, 450 mg (N=79)", "value": "0 No. (%)"}, {"measurement": "Serious TRAE: Multiple organ dysfunction syndrome", "setting": "Phase 1, 450 mg (N=79)", "value": "0 No. (%)"}, {"measurement": "Serious TRAE: Nausea", "setting": "Phase 1, 450 mg (N=79)", "value": "0 No. (%)"}, {"measurement": "Serious TRAE: Nephrolithiasis", "setting": "Phase 1, 450 mg (N=79)", "value": "0 No. (%)"}, {"measurement": "Serious TRAE: Platelet counts decreased", "setting": "Phase 1, 450 mg (N=79)", "value": "0 No. (%)"}, {"measurement": "Serious TRAE: Pleural effusion", "setting": "Phase 1, 450 mg (N=79)", "value": "0 No. (%)"}, {"measurement": "Serious TRAE: Pneumonia", "setting": "Phase 1, 450 mg (N=79)", "value": "0 No. (%)"}, {"measurement": "Serious TRAE: Pneumonitis", "setting": "Phase 1, 450 mg (N=79)", "value": "1 (1.3) No. (%)"}, {"measurement": "Serious TRAE: Prolonged QT interval", "setting": "Phase 1, 450 mg (N=79)", "value": "0 No. (%)"}, {"measurement": "Serious TRAE: Pulmonary embolism", "setting": "Phase 1, 450 mg (N=79)", "value": "0 No. (%)"}, {"measurement": "Serious TRAE: Pyrexia", "setting": "Phase 1, 450 mg (N=79)", "value": "0 No. (%)"}, {"measurement": "Serious TRAE: Rash", "setting": "Phase 1, 450 mg (N=79)", "value": "1 (1.3) No. (%)"}, {"measurement": "Serious TRAE: Rectal hemorrhage", "setting": "Phase 1, 450 mg (N=79)", "value": "1 (1.3) No. (%)"}, {"measurement": "Serious TRAE: Respiratory failure", "setting": "Phase 1, 450 mg (N=79)", "value": "0 No. (%)"}, {"measurement": "Serious TRAE: Seizure", "setting": "Phase 1, 450 mg (N=79)", "value": "0 No. (%)"}, {"measurement": "Serious TRAE: Septic shock", "setting": "Phase 1, 450 mg (N=79)", "value": "0 No. (%)"}, {"measurement": "Serious TRAE: Sudden cardiac arrest", "setting": "Phase 1, 450 mg (N=79)", "value": "0 No. (%)"}, {"measurement": "Serious TRAE: Sudden death", "setting": "Phase 1, 450 mg (N=79)", "value": "0 No. (%)"}, {"measurement": "Serious TRAE: Upper respiratory tract infection", "setting": "Phase 1, 450 mg (N=79)", "value": "1 (1.3) No. (%)"}, {"measurement": "Serious TRAE: Ventricular tachycardia", "setting": "Phase 1, 450 mg (N=79)", "value": "0 No. (%)"}, {"measurement": "Serious TRAE: Vomiting", "setting": "Phase 1, 450 mg (N=79)", "value": "0 No. (%)"}, {"measurement": "Serious TRAE: Weight loss", "setting": "Phase 1, 450 mg (N=79)", "value": "0 No. (%)"}, {"measurement": "Serious TEAE: ALT increased", "setting": "Phase 1, 600 mg (N=64)", "value": "2 (3.1) No. (%)"}, {"measurement": "Serious TEAE: AST increased", "setting": "Phase 1, 600 mg (N=64)", "value": "2 (3.1) No. (%)"}, {"measurement": "Serious TEAE: Abdominal Pain", "setting": "Phase 1, 600 mg (N=64)", "value": "0 No. (%)"}, {"measurement": "Serious TEAE: Abdominal distension", "setting": "Phase 1, 600 mg (N=64)", "value": "0 No. (%)"}, {"measurement": "Serious TEAE: Acute cholecystitis", "setting": "Phase 1, 600 mg (N=64)", "value": "0 No. (%)"}, {"measurement": "Serious TEAE: Acute pancreatitis", "setting": "Phase 1, 600 mg (N=64)", "value": "1 (1.6) No. (%)"}, {"measurement": "Serious TEAE: Anal abscess", "setting": "Phase 1, 600 mg (N=64)", "value": "1 (1.6) No. (%)"}, {"measurement": "Serious TEAE: Any", "setting": "Phase 1, 600 mg (N=64)", "value": "17 (26.6) No. (%)"}, {"measurement": "Serious TEAE: Aortic intramural hematoma", "setting": "Phase 1, 600 mg (N=64)", "value": "0 No. (%)"}, {"measurement": "Serious TEAE: Arrhythmia", "setting": "Phase 1, 600 mg (N=64)", "value": "0 No. (%)"}, {"measurement": "Serious TEAE: Blood bilirubin increased", "setting": "Phase 1, 600 mg (N=64)", "value": "1 (1.6) No. (%)"}, {"measurement": "Serious TEAE: Blood creatinine increased", "setting": "Phase 1, 600 mg (N=64)", "value": "1 (1.6) No. (%)"}, {"measurement": "Serious TEAE: COVID-19", "setting": "Phase 1, 600 mg (N=64)", "value": "0 No. (%)"}]}]}
